The values below are quoted from earlier work in US9662315B2, “Ameliorating drug-induced elevations in blood pressure by adjunctive use of antihypertensive drugs” (Kitov Pharmaceuticals Ltd., priority 2008, dated 2017).

For the data set the following is noted: per FDA approved drug labeling; rofecoxib compared with placebo control patients.

In the case of `Cc1ccc(-c2cc(C(F)(F)F)nn2-c2ccc(S(N)(=O)=O)cc2)cc1` [celecoxib], the “high blood pressure / hypertension rate in treated patients” value is on record as “increased rate of hypertension”.
Regarding `CS(=O)(=O)c1ccc(C2=C(c3ccccc3)C(=O)OC2)cc1` [rofecoxib], the “high blood pressure / hypertension rate in treated patients” value is listed as “occurring more frequently”.
